# Assay results as given in patent US20240132492A1, “PYRIDOPYRIMIDINE-BASED COMPOUND AND APPLICATION THEREOF” (JINAN UNIVERSITY, priority 2021, published 2024).
# Key:
# Type in all cases: cell-based
# AKT1 = molecular target: T1, AKT1 (Homo sapiens, UniProt P31749); assay: Western Blot, degradation of AKT1 protein in H1975-OR cells; details: 1000 nM, 24 hours, maximum degradation rate
# T1 construct: AKT1, AKT2, and AKT3 proteins in H1975-OR cells; endogenous in cells; host or cells: H1975-OR (osimertinib-resistant H1975)
# Method: (§1) Cell line: Non-small cell lung cancer H1975-OR cell line, which is an Osimertinib resistant H1975 cell line, and could be obtained through low dose gradual addition culture. Specific method: H1975 cells were spread in a 10 cm culture dish at a convergence rate of 60-70%, added 50 nM of Osimertinib to the culture medium. After the cell state stabilized, the concentration of Osimertinib was gradually double to 3 μM.
# (§2) Conventional Western Blot (immunoblotting) was used for detection, as follows: a certain number of H1975-OR cells were planted on a 96 well plate, adherent cultured in an incubator overnight, and added a certain concentration of compound to act for 24 hours. 1×SDS lysis buffer with protease and phosphatase inhibitors was used to lyse cells. Cell lysates were separated by SDS-PAGE and transferred to PVDF membrane. Then, at room temperature, the PCDF membrane was taken out and immersed in a sealing solution (5% BSA TBS solution containing 0.5% Tween-20) for sealing treatment for 1 hour, and then incubated with a specific primary antibody at 4° C. overnight. The imprints were washed with TBST and incubated with horseradish peroxidase (HRP) labeled secondary antibodies at room temperature for 2 hours. Finally, ECL plus fluorescence detection reagent (Thermo Scientific, Waltham, MA) was used for protein development, and the Amersham Imager 600 system (GE, America) was used for photography. The detection results were processed using ImageJ software to obtain the grayscale value G (Density).
# H1975 = assay: CCK-8 tumor cell proliferation, H1975; details: Homo sapiens, NCI-H1975, H1975 cells, 72 hours
# Method: (§3) Tumor cells (see Table 2 to Table 5) were inoculated in 96-well plates in complete culture medium (2000-3000 cells/well). After overnight incubation, the compounds with different concentrations (0.000508 μM-10 μM) were used to treat the cells separately for 72 hours. CCK-8 (Cell Counting Kit 8, Dojindo Laboratories, Kumamoto, Japan) experiment was used to evaluate cell proliferation. GraphPad Prism 5.0 software (La Jolla, CA) was used to calculate the half-maximal inhibitory concentration (IC50) values by fitting the concentration response curve. Each IC50 value was represented as an average value±SD.
# AKT3 = AKT3 (Homo sapiens, UniProt Q9Y243); assay: Western Blot, degradation of AKT3 protein in H1975-OR cells; parameters: endogenous in cells; host or cells: H1975-OR (osimertinib-resistant H1975); details: 1000 nM, 24 hours, maximum degradation rate
# Method: as §1, §2
# H1975OR = assay: CCK-8 tumor cell proliferation, H1975OR; details: H1975OR cells (Osimertinib resistant), 72 hours
# Method: as §1, §3
# AKT2 = molecular target: T2, AKT2 (Homo sapiens, UniProt P31751); assay: Western Blot, degradation of AKT2 protein in H1975-OR cells; details: 1000 nM, 24 hours, maximum degradation rate
# T2 construct: AKT1, AKT2, and AKT3 proteins in H1975-OR cells; endogenous in cells; host or cells: H1975-OR (osimertinib-resistant H1975)
# Method: as §1, §2
# T2 sequence (P31751 whole entry): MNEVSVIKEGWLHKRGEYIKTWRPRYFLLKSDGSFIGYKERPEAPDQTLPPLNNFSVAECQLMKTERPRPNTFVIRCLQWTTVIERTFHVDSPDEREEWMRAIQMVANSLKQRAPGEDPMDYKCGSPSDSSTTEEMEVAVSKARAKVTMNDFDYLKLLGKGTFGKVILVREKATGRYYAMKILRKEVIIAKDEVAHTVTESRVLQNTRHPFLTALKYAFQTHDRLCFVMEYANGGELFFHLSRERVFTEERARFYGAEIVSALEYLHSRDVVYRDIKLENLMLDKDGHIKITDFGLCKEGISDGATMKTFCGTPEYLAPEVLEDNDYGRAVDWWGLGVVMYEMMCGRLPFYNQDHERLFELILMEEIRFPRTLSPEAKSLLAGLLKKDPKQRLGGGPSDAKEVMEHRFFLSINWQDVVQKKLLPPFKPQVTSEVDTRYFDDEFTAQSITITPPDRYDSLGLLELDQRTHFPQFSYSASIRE
# AKT3, sequence (Q9Y243 whole entry): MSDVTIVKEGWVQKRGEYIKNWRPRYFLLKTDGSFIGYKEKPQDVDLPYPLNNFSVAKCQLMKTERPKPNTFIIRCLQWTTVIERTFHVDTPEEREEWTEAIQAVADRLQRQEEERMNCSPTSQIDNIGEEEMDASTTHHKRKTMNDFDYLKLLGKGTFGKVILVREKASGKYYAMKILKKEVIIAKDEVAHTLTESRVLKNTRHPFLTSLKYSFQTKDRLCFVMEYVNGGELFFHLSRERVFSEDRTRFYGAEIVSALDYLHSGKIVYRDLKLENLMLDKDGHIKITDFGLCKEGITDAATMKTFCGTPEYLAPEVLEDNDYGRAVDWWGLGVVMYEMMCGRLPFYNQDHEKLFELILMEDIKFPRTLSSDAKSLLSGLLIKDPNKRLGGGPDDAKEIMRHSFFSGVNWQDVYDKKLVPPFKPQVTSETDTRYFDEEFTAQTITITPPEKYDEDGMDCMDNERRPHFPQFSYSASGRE
# T1 sequence (P31749 whole entry): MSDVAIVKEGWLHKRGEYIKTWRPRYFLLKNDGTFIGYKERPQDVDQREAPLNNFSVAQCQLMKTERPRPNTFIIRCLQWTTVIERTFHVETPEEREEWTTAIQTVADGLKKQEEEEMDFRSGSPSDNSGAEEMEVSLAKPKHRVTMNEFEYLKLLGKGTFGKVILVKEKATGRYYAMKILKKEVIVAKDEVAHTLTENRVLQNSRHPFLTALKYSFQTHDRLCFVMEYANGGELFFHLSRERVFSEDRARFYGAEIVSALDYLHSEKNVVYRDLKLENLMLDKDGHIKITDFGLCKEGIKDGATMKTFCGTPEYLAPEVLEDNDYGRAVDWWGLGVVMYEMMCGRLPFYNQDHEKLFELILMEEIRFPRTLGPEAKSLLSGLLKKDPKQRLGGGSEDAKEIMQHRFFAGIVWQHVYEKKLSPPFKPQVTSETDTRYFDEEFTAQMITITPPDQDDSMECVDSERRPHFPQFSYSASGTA
Dmax at 1 µM (AKT1) [%],IC50 (H1975) [µM],Dmax at 1 µM (AKT3) [%],IC50 (H1975OR) [µM],Dmax at 1 µM (AKT2) [%],Compound
0,0.00919 ± 0.00567,55.3,0.0102 ± 0.004,51,"COc1cc(N2CCN(CCCCCCCCCCCCNC(=O)CC34CC5CC(CC(C5)C3)C4)CC2)ccc1Nc1ncc2c(C)cc(=O)n(-c3cccc(NCC4CCC4)c3)c2n1 [ZX-HYT-39, 2-((3R, 5R, 7R)-adamantan-1-yl)-N-(12-(4-(4-((8-(3-((cyclobutylmethyl)amino)phenyl)-5-methyl-7)-oxo-7,8-dihydropyridino [2,3-d]pyrimidin-2-yl)amino)-3-methoxyphenyl)piperazin-1-yl) dodecyl) acetamide]"
28.4,0.0551 ± 0.0232,18.8,0.0487 ± 0.004,15.1,COc1cc(N2CCN(CCCCCCCCNC(=O)C3CC3)CC2)ccc1Nc1ncc2c(C)cc(=O)n(-c3cccc(NC(=O)C4CC4)c3)c2n1 [ZX-HYT-62]
0,–,30.6,–,0,"COc1cc(N2CCN(CCCCCCCCCCCCNC(=O)CC34CC5CC(CC(C5)C3)C4)CC2)ccc1Nc1ncc2c(C)cc(=O)n(-c3cccc(NC4CCN(C)CC4)c3)c2n1 [ZX-HYT-18, 2-((3R, 5R, 7R)-adamantan-1-yl)-N-(12-(4-(3-methoxy-4-(5-methyl-8-(3-(1-methylpipe-4-yl)amino)phenyl)-7-oxo-7,8-dihydropyridino [2,3-d]pyrimidin-2-yl)amino)phenyl) piperazin-1-yl) dodecyl) acetamide]"
0,–,16.2,–,0,"COc1cc(OCCOCCCCCCCCCCCCOCCC23CC4CC(CC(C4)C2)C3)ccc1Nc1ncc2c(C)cc(=O)n(-c3cccc(NC(=O)C4CC4)c3)c2n1 [ZX-HYT-38, N-(3-(2-((4-(2-((12-(2-((3R, 5R, 7R)-adamantan-1-yl)ethoxy)dodecyl)oxy)ethoxy)-2-methoxyphenyl)amino)-5-methyl-7-oxypyridino [2,3-d]pyrimidin-8 (7H)-yl)phenyl) cyclopropane formamide]"
–,0.645,–,0.177,–,"COc1cc(OCCCCCCCCCCCCNC(=O)CC23CC4CC(CC(C4)C2)C3)ccc1Nc1ncc2c(C)cc(=O)n(-c3cccc(NC(=O)C4CC4)c3)c2n1 [ZX-HYT-28, N-(3-(2-((4-((12-(2-((3R, 5R, 7R)-adamantan-1-yl)acetylamino)dodecyl)oxy)-2-methoxyphenyl)amino)-5-methyl-7-oxypyrimidino [2,3-d]pyrimidin-8 (7H)-yl)phenyl) cyclopropane formamide]"
0,–,6.8,–,0,"COc1cc(N2CCN(CCCCCCCCCCCCNC(=O)CC34CC5CC(CC(C5)C3)C4)CC2)ccc1Nc1ncc2c(C)cc(=O)n([C@H]3CCC[C@@H](C(=O)NC4CC4)C3)c2n1 [ZX-HYT-21, (1R, 3S)-3-(2-(4-(4-(12-(2-(((3R, 5R, 7R)-adamantan-1-yl)acetylamino)dodecyl)piperazin-1-yl)-2-methoxyphenyl)amino)-5-methyl-7-oxypyridino [2,3-d]pyrimidin-8 (7H)-yl)-N-cyclopropylcyclohexane-1-carboxylamide]"
0,–,70.3,–,31.4,"CCc1cccc(-n2c(=O)cc(C)c3cnc(Nc4ccc(N5CCN(CCCCCCCCCCCCNC(=O)CC67CC8CC(CC(C8)C6)C7)CC5)cc4OC)nc32)c1 [ZX-HYT-16, 2-((3R, 5R, 7R)-adamantan-1-yl)-N-(12-(4-(4-(8-(3-ethylphenyl)-5-methyl-7-oxy-7,8-dihydropyridino [2,3-d]pyrimidin-2-yl)amino)-3-methoxyphenyl)piperazin-1-yl) dodecyl) acetamide]"
0,–,41.4,–,0,COc1cc(N2CCN(CCCCCCCCCCCCNC(=O)CC34CC5CC(CC(C5)C3)C4)CC2)ccc1Nc1ncc2c(C)cc(=O)n([C@H]3CCC[C@@H](NC(=O)C4CC4)C3)c2n1 [ZX-HYT-23]
